Data: patent US20060252807A1, “Novel ortho-terphenyl inhibitors of p38 kinase and methods of treating inflammatory disorders” (Kalypsys, Inc., priority 2005, published 2006)
pIC50: −log10 of the molar value.

These compounds were tested against T1, active p38 alpha enzyme (Upstate Biotechnology) (Homo sapiens, UniProt Q16539) (assay: p38α biochemical assay (ATP turnover, luminescent detection, Cambrex PKlight)). Details: p38α kinase; Table 1 Biological Activity.
T1 construct: purchased Upstate Biotechnology
T1 sequence (Q16539 whole entry): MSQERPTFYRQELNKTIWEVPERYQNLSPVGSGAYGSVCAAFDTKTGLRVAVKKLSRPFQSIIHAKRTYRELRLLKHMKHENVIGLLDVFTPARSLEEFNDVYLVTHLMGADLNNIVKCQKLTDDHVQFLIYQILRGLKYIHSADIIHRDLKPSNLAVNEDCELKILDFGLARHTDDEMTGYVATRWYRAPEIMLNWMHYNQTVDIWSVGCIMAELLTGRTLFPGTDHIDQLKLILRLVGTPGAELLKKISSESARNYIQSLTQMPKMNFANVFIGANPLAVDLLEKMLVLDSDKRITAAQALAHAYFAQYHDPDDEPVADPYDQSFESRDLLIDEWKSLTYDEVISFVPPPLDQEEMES
Method in brief: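 p38α + MapkapK2 (whole protein substrate) + 1.4 uM ATP final; Tris/MOPS buffer with MgCl2, CaCl2, EGTA, EDTA, glycerol, β-ME, BSA; 2 h at 30C; luminescent detection of remaining ATP.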

Row | pIC50 | Structure (SMILES)
1 | ≥ 6.00 | Cc1nc(-c2ccc(F)cc2)c(-c2nc(C(=O)Nc3ccc4c(c3)OCCO4)cs2)s1 [Example 2002]
2 | < 6.00 | COc1ccc(NC(=O)c2csc(-c3sc(C)nc3-c3ccc(F)cc3)n2)cc1OC [Example 2003]
3 | < 6.00 | Cc1nc(-c2ccc(F)cc2)c(-c2nc(C(=O)Nc3ccccc3-n3cccc3)cs2)s1 [Example 2004]
4 | < 6.00 | Cc1nc(-c2ccc(F)cc2)c(-c2nc(C(=O)Nc3ccc(C(F)(F)F)cc3)cs2)s1 [Example 2005]
5 | < 6.00 | Cc1nc(-c2ccc(F)cc2)c(-c2nc(C(=O)Nc3cccc(C(F)(F)F)c3)cs2)s1 [Example 2006]
6 | < 6.00 | Cc1nc(-c2ccc(F)cc2)c(-c2nc(C(=O)Nc3ccc(Cl)c(Cl)c3)cs2)s1 [Example 2007]
7 | ≥ 6.00 | Cc1nc(-c2ccc(F)cc2)c(-c2nc(C(=O)Nc3c(C)cccc3C(C)(C)C)cs2)s1 [Example 2008]
8 | ≥ 6.00 | Cc1nc(-c2ccc(F)cc2)c(-c2nc(C(=O)Nc3ccc(N(C)C)cc3)cs2)s1 [Example 2009]
9 | ≥ 6.00 | Cc1nc(-c2ccc(F)cc2)c(-c2nc(C(=O)Nc3ccccc3-c3ccccc3)cs2)s1 [Example 2010]
10 | < 6.00 | Cc1nc(-c2ccc(F)cc2)c(-c2nc(C(=O)Nc3ccc(OC(F)(F)F)cc3)cs2)s1 [Example 2011]
11 | < 6.00 | Cc1nc(-c2ccc(F)cc2)c(-c2nc(C(=O)Nc3c(C(C)C)cccc3C(C)C)cs2)s1 [Example 2012]
12 | < 6.00 | Cc1nc(-c2ccc(F)cc2)c(-c2nc(C(=O)Nc3ccc(F)cc3C(F)(F)F)cs2)s1 [Example 2013]
13 | < 6.00 | Cc1nc(-c2ccc(F)cc2)c(-c2nc(C(=O)Nc3cc(C(F)(F)F)ccc3F)cs2)s1 [Example 2014]
14 | < 6.00 | Cc1nc(-c2ccc(F)cc2)c(-c2nc(C(=O)Nc3ccc(F)c(C(F)(F)F)c3)cs2)s1 [Example 2015]
15 | < 6.00 | CCOc1ccc(OCC)c(NC(=O)c2csc(-c3sc(C)nc3-c3ccc(F)cc3)n2)c1 [Example 2016]
16 | < 6.00 | Cc1nc(-c2ccc(F)cc2)c(-c2nc(C(=O)Nc3cc(Cl)c(Cl)c(Cl)c3)cs2)s1 [Example 2017]
17 | < 6.00 | Cc1nc(-c2ccc(F)cc2)c(-c2nc(C(=O)Nc3ccccc3C(=O)c3ccccc3)cs2)s1 [Example 2018]
18 | < 6.00 | Cc1nc(-c2ccc(F)cc2)c(-c2nc(C(=O)Nc3ccccc3COc3ccccc3)cs2)s1 [Example 2019]
19 | < 6.00 | COc1ccc(-c2ccccc2)cc1NC(=O)c1csc(-c2sc(C)nc2-c2ccc(F)cc2)n1 [Example 2020]
20 | < 6.00 | Cc1nc(-c2ccc(F)cc2)c(-c2nc(C(=O)Nc3ncccc3OCc3ccccc3)cs2)s1 [Example 2021]
21 | < 6.00 | Cc1nc(-c2ccc(F)cc2)c(-c2nc(C(=O)Nc3cc(C(F)(F)F)ccc3C(F)(F)F)cs2)s1 [Example 2022]
22 | < 6.00 | Cc1nc(-c2ccc(F)cc2)c(-c2nc(C(=O)Nc3cc(C(F)(F)F)cc(C(F)(F)F)c3)cs2)s1 [Example 2023]
23 | ≥ 6.00 | Cc1nc(-c2ccc(F)cc2)c(-c2nc(C(=O)Nc3ccc(C(F)(F)F)cc3C(F)(F)F)cs2)s1 [Example 2024]
24 | ≥ 6.00 | O=C(NCC1CC1)c1csc(-c2c(-c3ccc(F)cc3)n[nH]c2C2CCNCC2)n1 [Example 2029]
25 | < 6.00 | O=C(O)c1csc(-c2c(-c3ccc(F)cc3)n[nH]c2C2CCNCC2)n1 [Example 2030]

Row | pIC50 | Structure (SMILES)
26 | ≥ 6.00 | CNC(=O)c1csc(-c2c(-c3ccc(F)cc3)n[nH]c2C2CCNCC2)n1 [Example 2031]
27 | ≥ 6.00 | N#CCNC(=O)c1csc(-c2c(-c3ccc(F)cc3)n[nH]c2C2CCNCC2)n1 [Example 2032]
28 | ≥ 6.00 | O=C(NC1CC1)c1csc(-c2c(-c3ccc(F)cc3)n[nH]c2C2CCNCC2)n1 [Example 2033]
29 | < 6.00 | CCCNC(=O)c1csc(-c2c(-c3ccc(F)cc3)n[nH]c2C2CCNCC2)n1 [Example 2034]
30 | < 6.00 | NCCNC(=O)c1csc(-c2c(-c3ccc(F)cc3)n[nH]c2C2CCNCC2)n1 [Example 2035]
31 | ≥ 6.00 | O=C(NCCO)c1csc(-c2c(-c3ccc(F)cc3)n[nH]c2C2CCNCC2)n1 [Example 2036]
32 | < 6.00 | N#CCCNC(=O)c1csc(-c2c(-c3ccc(F)cc3)n[nH]c2C2CCNCC2)n1 [Example 2037]
33 | ≥ 6.00 | O=C(NC1CCC1)c1csc(-c2c(-c3ccc(F)cc3)n[nH]c2C2CCNCC2)n1 [Example 2038]
34 | ≥ 6.00 | CCC(C)NC(=O)c1csc(-c2c(-c3ccc(F)cc3)n[nH]c2C2CCNCC2)n1 (stereo not drawn) [Example 2039]
35 | < 6.00 | CC(C)CNC(=O)c1csc(-c2c(-c3ccc(F)cc3)n[nH]c2C2CCNCC2)n1 [Example 2040]
36 | ≥ 6.00 | O=C(NCCCO)c1csc(-c2c(-c3ccc(F)cc3)n[nH]c2C2CCNCC2)n1 [Example 2041]
37 | ≥ 6.00 | CC(CO)NC(=O)c1csc(-c2c(-c3ccc(F)cc3)n[nH]c2C2CCNCC2)n1 (stereo not drawn) [Example 2042]
38 | ≥ 6.00 | COCCNC(=O)c1csc(-c2c(-c3ccc(F)cc3)n[nH]c2C2CCNCC2)n1 [Example 2043]
39 | ≥ 6.00 | O=C(NC1CCCC1)c1csc(-c2c(-c3ccc(F)cc3)n[nH]c2C2CCNCC2)n1 [Example 2044]
40 | ≥ 6.00 | CCCC(C)NC(=O)c1csc(-c2c(-c3ccc(F)cc3)n[nH]c2C2CCNCC2)n1 (stereo not drawn) [Example 2045]
41 | < 6.00 | CCC(C)CNC(=O)c1csc(-c2c(-c3ccc(F)cc3)n[nH]c2C2CCNCC2)n1 (stereo not drawn) [Example 2046]
42 | < 6.00 | CC(C)C(C)NC(=O)c1csc(-c2c(-c3ccc(F)cc3)n[nH]c2C2CCNCC2)n1 (stereo not drawn) [Example 2047]
43 | < 6.00 | CC(C)CCNC(=O)c1csc(-c2c(-c3ccc(F)cc3)n[nH]c2C2CCNCC2)n1 [Example 2048]
44 | < 6.00 | CN(C)CCNC(=O)c1csc(-c2c(-c3ccc(F)cc3)n[nH]c2C2CCNCC2)n1 [Example 2049]
45 | < 6.00 | COCC(C)NC(=O)c1csc(-c2c(-c3ccc(F)cc3)n[nH]c2C2CCNCC2)n1 (stereo not drawn) [Example 2050]
46 | ≥ 6.00 | CCC(CO)NC(=O)c1csc(-c2c(-c3ccc(F)cc3)n[nH]c2C2CCNCC2)n1 (stereo not drawn) [Example 2051]
47 | < 6.00 | CCC(CO)NC(=O)c1csc(-c2c(-c3ccc(F)cc3)n[nH]c2C2CCNCC2)n1 (stereo not drawn) [Example 2052]
48 | < 6.00 | O=C(NCCCCO)c1csc(-c2c(-c3ccc(F)cc3)n[nH]c2C2CCNCC2)n1 [Example 2053]
49 | < 6.00 | O=C(NCc1ccco1)c1csc(-c2c(-c3ccc(F)cc3)n[nH]c2C2CCNCC2)n1 [Example 2054]
50 | < 6.00 | O=C(NC1CCCCC1)c1csc(-c2c(-c3ccc(F)cc3)n[nH]c2C2CCNCC2)n1 [Example 2055]

Row | pIC50 | Structure (SMILES)
51 | < 6.00 | O=C(NCC1CCCO1)c1csc(-c2c(-c3ccc(F)cc3)n[nH]c2C2CCNCC2)n1 (stereo not drawn) [Example 2056]
52 | < 6.00 | CC(C)(C)CCNC(=O)c1csc(-c2c(-c3ccc(F)cc3)n[nH]c2C2CCNCC2)n1 [Example 2057]
53 | < 6.00 | CC(C)CC(C)NC(=O)c1csc(-c2c(-c3ccc(F)cc3)n[nH]c2C2CCNCC2)n1 (stereo not drawn) [Example 2058]
54 | < 6.00 | O=C(NC1CONC1=O)c1csc(-c2c(-c3ccc(F)cc3)n[nH]c2C2CCNCC2)n1 (stereo not drawn) [Example 2059]
55 | < 6.00 | O=C(NN1CCOCC1)c1csc(-c2c(-c3ccc(F)cc3)n[nH]c2C2CCNCC2)n1 [Example 2060]
56 | ≥ 6.00 | CC(C)C(CO)NC(=O)c1csc(-c2c(-c3ccc(F)cc3)n[nH]c2C2CCNCC2)n1 (stereo not drawn) [Example 2061]
57 | < 6.00 | O=C(NCc1ccccc1)c1csc(-c2c(-c3ccc(F)cc3)n[nH]c2C2CCNCC2)n1 [Example 2062]
58 | < 6.00 | O=C(NCc1ccccn1)c1csc(-c2c(-c3ccc(F)cc3)n[nH]c2C2CCNCC2)n1 [Example 2063]
59 | ≥ 6.00 | O=C(NCc1ccncc1)c1csc(-c2c(-c3ccc(F)cc3)n[nH]c2C2CCNCC2)n1 [Example 2064]
60 | < 6.00 | O=C(NCc1cccs1)c1csc(-c2c(-c3ccc(F)cc3)n[nH]c2C2CCNCC2)n1 [Example 2065]
61 | < 6.00 | CC1CCC(NC(=O)c2csc(-c3c(-c4ccc(F)cc4)n[nH]c3C3CCNCC3)n2)CC1 (stereo not drawn) [Example 2066]
62 | < 6.00 | O=C(NCC1CCCCC1)c1csc(-c2c(-c3ccc(F)cc3)n[nH]c2C2CCNCC2)n1 [Example 2067]
63 | < 6.00 | O=C(NC1CCCCCC1)c1csc(-c2c(-c3ccc(F)cc3)n[nH]c2C2CCNCC2)n1 [Example 2068]
64 | < 6.00 | CC1CCCCC1NC(=O)c1csc(-c2c(-c3ccc(F)cc3)n[nH]c2C2CCNCC2)n1 (stereo not drawn) [Example 2069]
65 | < 6.00 | O=C(NCCN1CCCC1)c1csc(-c2c(-c3ccc(F)cc3)n[nH]c2C2CCNCC2)n1 [Example 2070]
66 | < 6.00 | CN1CCN(NC(=O)c2csc(-c3c(-c4ccc(F)cc4)n[nH]c3C3CCNCC3)n2)CC1 [Example 2071]
67 | < 6.00 | CCN(CC)CCNC(=O)c1csc(-c2c(-c3ccc(F)cc3)n[nH]c2C2CCNCC2)n1 [Example 2072]
68 | < 6.00 | Cc1cccc(CNC(=O)c2csc(-c3c(-c4ccc(F)cc4)n[nH]c3C3CCNCC3)n2)c1 [Example 2073]
69 | < 6.00 | C[C@H](NC(=O)c1csc(-c2c(-c3ccc(F)cc3)n[nH]c2C2CCNCC2)n1)c1ccccc1 [Example 2074]
70 | < 6.00 | C[C@@H](NC(=O)c1csc(-c2c(-c3ccc(F)cc3)n[nH]c2C2CCNCC2)n1)c1ccccc1 [Example 2075]
71 | < 6.00 | O=C(NCCc1ccccc1)c1csc(-c2c(-c3ccc(F)cc3)n[nH]c2C2CCNCC2)n1 [Example 2076]
72 | < 6.00 | Cc1ccccc1CNC(=O)c1csc(-c2c(-c3ccc(F)cc3)n[nH]c2C2CCNCC2)n1 [Example 2077]
73 | < 6.00 | Cc1ccc(CNC(=O)c2csc(-c3c(-c4ccc(F)cc4)n[nH]c3C3CCNCC3)n2)cc1 [Example 2078]
74 | < 6.00 | Cc1cnc(CNC(=O)c2csc(-c3c(-c4ccc(F)cc4)n[nH]c3C3CCNCC3)n2)cn1 [Example 2079]
75 | < 6.00 | O=C(NCc1cccc(F)c1)c1csc(-c2c(-c3ccc(F)cc3)n[nH]c2C2CCNCC2)n1 [Example 2080]
